≈ marks a conversion by molar mass, not a printed value. Starred links: 1 amine or outer side, 2 acyl side, 3 side chain; linkers in the order of their positions; H or OH if unused. Positions of bridges follow the written chain, without caps; N, C: chain ends. Non-standard residues stand in square brackets, D forms with d. Residues, ends and D or L forms follow the SMILES beside them. *: point of attachment. X1 = NC1=N[C@@H]([C@H](N[*:1])C(=O)[*:2])C[C@H](O)N1; ΔAla(Z-3-ureido) = NC(=O)N/C=C(\N)C(=O)O; β3hOrn = NCCC[C@H](N)CC(=O)*; Dap = NC[C@H](N)C(=O)O
What was measured:
M. smegmatis [1] = conditions: tlyA mutant P2U; cited from earlier work
E. coli DH1 = assay: microbe, parasite or virus in culture; format: cell-based; conditions: Escherichia coli, DH1, read-out: Minimal inhibitory concentrations
E. coli strain AS19 = assay: Agar plate MIC on hyperpermeable E. coli AS19; conditions: Escherichia coli
Method: Escherichia coli strain DH1 was used for cloning and expressing recombinant tlyA, and was grown by standard techniques (Sambrook et al., 1989). The hyperpermeable E. coli strain AS19 (Sekiguchi and Iida, 1967) was additionally used to express tlyA.
Overnight cultures of E. coli DH1 and AS19 strains were diluted 10^5-fold and plated onto agar containing viomycin (US Pharmacopeia), capreomycin, kanamycin or rifampicin (Sigma) with concentrations increasing in two-fold steps. The agar plates were incubated at 37° C.; and after 22 h, MICs were scored as the lowest concentration at which no growth was observed.

M. smegmatis [2] = assay: microbe, parasite or virus in culture; format: cell-based, Mycobacterium smegmatis
[3] = system: 70S ribosome (30S, 50S and 70S particles); format: binding, Mycobacterium smegmatis
[4] = system: S. coelicolor M145 and derived mutants; format: cell-based, Streptomyces coelicolor
S. avermitilis MA4630 = format: cell-based, Streptomyces avermitilis

## NCC[C@H](O)C(=O)N[C@@H]1C[C@H](N)[C@@H](O[C@H]2O[C@H](CN)[C@@H](O)[C@H](O)[C@H]2O)[C@H](O)[C@H]1O[C@H]1O[C@H](CO)[C@@H](O)[C@H](N)[C@H]1O [amikacin]
M. smegmatis [1]
  susceptibility: susceptible

## NC[C@H]1O[C@H](O[C@H]2[C@H](O)[C@@H](O[C@H]3O[C@H](CO)[C@@H](O)[C@H](N)[C@H]3O)[C@H](N)C[C@@H]2N)[C@H](O)[C@@H](O)[C@@H]1O [kanamycin]
E. coli DH1
  MIC: 4 µg/mL (≈ 8.26 µM)

## CO[C@H]1/C=C/O[C@@]2(C)Oc3c(C)c(O)c4c(O)c(c(/C=N/N5CCN(C)CC5)c(O)c4c3C2=O)NC(=O)/C(C)=C\C=C\[C@H](C)[C@H](O)[C@@H](C)[C@@H](O)[C@@H](C)[C@H](OC(C)=O)[C@@H]1C [rifampicin]
E. coli DH1
  MIC: 4 µg/mL (≈ 4.86 µM)
E. coli strain AS19
  MIC: 0.1 µg/mL (≈ 0.122 µM)

## NCCC[C@H](N)CC(=O)N[C@H]1CNC(=O)[C@H]([C@H]2C[C@H](O)NC(N)=N2)NC(=O)/C(=C/NC(N)=O)NC(=O)[C@H](CO)NC(=O)[C@H](CO)NC1=O [viomycin] (β3hOrn-[Dap]SS[ΔAla(Z-3-ureido)][X1]; lactam 1-C)
M. smegmatis [2]; Mycolicibacterium smegmatis
  MIC: 20 to 40 µg/mL (≈ 29.2 to 58.3 µM)
[3]
  binding interactions with the ribosome (footprints): occur only when the ribosomal subunits are associated into 70S couples

## capreomycin
M. smegmatis [2]
  MIC, minimal inhibitory concentration of capreomycin: <10 µg/mL
[4]
  MIC value: 1 to 5 µg/mL
  capreomycin concentration above which the strain is unable to grow: 5 µg/mL
  capreomycin concentration at which the strain grew very well: 100 µg/mL
  capreomycin concentration at which the strain still grows: 100 µg/mL
  capreomycin sensitivity after complementation: regained capreomycin sensitivity
  resistance relative to parent M145: more than 100 fold
S. avermitilis MA4630
  MIC value: 1 to 5 µg/mL
[3]
  binding interactions with the ribosome (footprints): occur only when the ribosomal subunits are associated into 70S couples

Source: patent publication US20100292137A1, “Antibiotics and Methods For Producing Them” (priority 2006, published 2010)
